Results taken from ChEMBL document CHEMBL3217619, “Design and synthesis of trans-2-substituted-cyclopropane-1-carboxylic acids as the first non-natural small molecule inhibitors of O-acetylserine sulfhydrylase” (Medchemcomm, 2012).

Experiments:
[1] = Binding affinity to Haemophilus influenzae OASS-A expressed in Escherichia coli assessed as dissociation constant by fluorometric analysis
[2] = Inhibition of Haemophilus influenzae OASS-A expressed in Escherichia coli using OAS/TNB as substrate by spectrophotometric analysis
[3] = Competitive inhibition of Haemophilus influenzae OASS-A expressed in Escherichia coli using OAS/TNB as substrate by ping-pong analysis
[4] = Binding affinity to Haemophilus influenzae OASS-A expressed in Escherichia coli using OAS/TNB as substrate assessed as dissociation constant

SMILES | Kd [1] [µM] | further results
CCOC(=O)[C@H]1C[C@@H]1C(=O)O (racemic) | 760 | –
CCOC(=O)[C@H]1C[C@H]1C(=O)O (racemic) | 4700 | –
CC(C)OC(=O)[C@H]1C[C@@H]1C(=O)O (racemic) | 513 | –
CC(C)COC(=O)[C@H]1C[C@@H]1C(=O)O (racemic) | 950 | –
CCOC[C@H]1C[C@@H]1C(=O)O (racemic) | 5.3 | –
CCCOC[C@H]1C[C@@H]1C(=O)O (racemic) | 6.5 | –
C/C=C/[C@H]1C[C@@H]1C(=O)O (racemic) | 1.46 | IC50 [2]: 700 µM; IC50 [3]: 600 µM; Kd [4]: 200 µM
CC/C=C/[C@H]1C[C@@H]1C(=O)O (racemic) | 21.5 | –
